The text below walks through data of patent US20130005019A1, “GENETICALLY ENCODED PHOTO CONTROL” (North Carolina State University, priority 2010, published 2013).

Where a name gives a salt, the structure may show the parent alone.

One data set has as its system MAP kinase pathway. Briefly: EGFP-ERK2 nuclear translocation upon EGF stimulation. The following applies: wild-type MEK1. It counts as cell-based, human. The protocol: FIG. 16 EGFP-ERK2 nuclear translocation upon EGF stimulation. (a) Montage showing EGFP-ERK2 sub-cellular fluorescence at different time points after activation of co-expressed wt-MEK1 by addition of 100 ng/ml EGF. Scale bars represent 5 μm.
When cells expressing wild-type MEK1 and EGFP-ERK2 are stimulated with 100 ng/ml of epidermal growth factor (EGF) the entire MAP kinase pathway is activated and EGFP-ERK2 is translocated to the nucleus. […] We observe substantial cell-to-cell variability in both the t1/2 for import and the maximal ratio of nuclear to cytoplasmic EGFP-ERK2, and, as previously reported (Cohen-Saidon et al., 2009), we observe less variability in the timing of nuclear import than in the fraction of ERK2 in the nucleus following stimulation (Cohen-Saidon et al., 2009) (FIG. 16c,d). The nuclear accumulation of EGFP-ERK2 peaks and then dissipates to pre-stimulus levels, a well known effect in cellular systems known as exact adaptation (Cohen-Saidon et al., 2009). This effect is not understood in molecular detail for EGF signalling, but must involve cellular processes that compensate for EGF stimulation at some—as yet undefined—point or points in the pathway. […]

The test system of data set [1] is MEK1. The note with it: C-MEK1-ΔN cells, 10 μM U0126 for 30 min before illumination.
Method: (a) HEK293ET cells co-transfected with plasmids encoding PCKRS, pyrrolysyl tRNACUA, C-MEK1-ΔN-HA and EGFP-ERK2 (either TEY, lanes 7 and 8; or AAA, lanes 9 and 10) were grown in medium supplemented with 2 mM of amino acid 1 (lanes 8 and 10) or without (lanes 7 and 9) for 24 h. […] (b) HEK293ET cells co-transfected with plasmids encoding PCKRS, pyrrolysyl tRNACUA, EGFP-ERK2 and either A-MEK1-ΔN-HA (lane 2), or D-MEK1-ΔN-HA (lanes 3-6), or C-MEK1-ΔN-HA (lanes 7-10) were grown in medium supplemented with 2 mM of 1 and 0.1% FBS for 24 h. Cells expressing D-MEK1-ΔN-HA and C-MEK1-ΔN-HA were illuminated with a 365 nm LED lamp for 60 s. Cells were lysed 1, 10 and 60 min after illumination. (c) HEK293ET cells co-transfected with plasmids encoding PCKRS, pyrrolysyl tRNACUA, EGFP-ERK2 and either A-MEK1-ΔN-HA (lane 2), or D-MEK1-ΔN-HA (lanes 3, 5, 6, 9, 10, 13, 14, 17, 18) or C-MEK1-ΔN-HA (lanes 4, 7, 8, 11, 12, 15, 16, 19, 20) were grown in medium supplemented with 2 mM of amino acid 1 and 0.1% FBS for 24 h. […]
Immunoblotting—Cells were washed with ice-cold phosphate buffer saline (PBS), then lysed with ice-cold universal lysis buffer (Roche) supplemented with protease inhibitors cocktail (Roche), 1 mM sodium vanadate, 5 mM sodium fluoride and 10 mM EDTA. Samples were resolved by SDS-PAGE and analyzed by immunoblotting with appropriate antibodies after transferring to nitrocellulose membranes.
Data set [2] deals with MEK1.
Method: ERK2 nucleocytoplasmic shuttling. (a) HEK293ET cells co-expressing C-MEK1-DD and EGFP-ERK2 were illuminated (2 s, 365 nm, 1 mW/cm^2), then 8 minutes after illumination, U0126 (10 μM) was added to block the activity of photoactivated C-MEK1-DD and unveil EGFP-ERK2 efflux from the nucleus. […] Scale bars represent 5 μm. (b) The graph presents the normalized F(n/c) as a function of time after illumination (mean±SD of ten representative cells). The arrow indicates the time when U0126 was added.
To unveil this compensating process and visualize ERK2 nuclear export, we induced EGFP-ERK2 nuclear translocation by C-MEK1-DD photoactivation, and then blocked MEK1-induced ERK2 nuclear translocation by addition of the MEK1 inhibitor U0126.
Live cell imaging—Live cells grown in μ-Dish (Ibidi) were imaged at room temperature with an inverted Zeiss LSM 710 Laser Scanning Microscope equipped with a Plan Apochromat 63×/1.4 oil immersion objective. […] The mean nuclear (Fn) and cytoplasmic (Fc) fluorescence intensities were quantified using ImageJ software to enable the F(n/c) ratio to be determined according to the formula: F(n/c)=(Fn−Fb)/(Fc−Fb), where Fb is the mean background fluorescence intensity.
Data set [3] deals with HEK293 cells. Nature of the data set: Photo-control of p53-EGFP nuclear import, live cell imaging. In kind it is cell-based, human. The following applies: photolysis 5 s, 365 nm, 1.2 mW/cm^2; amino acid at position 305 of p53.
Method: Fluorescence confocal micrographs showing the cellular localization of the EGFP fusions of wild-type p53, p53-K305A. D. Confocal micrographs showing the cellular localization of the EGFP fusions before and 50 min after photolysis (5 s; 365 nm; 1.2 mW/cm^2).
For live cell imaging, cells were seeded and transfected in μ-Dish (Ibidi). Live cells were imaged at room temperature with a Zeiss LSM 710 Laser Scanning Microscope equipped with a Plan Apochromat 63×/1.4 oil immersion objective. […] The mean nuclear (Fn) and cytoplasmic (Fc) fluorescence intensities were quantified using ImageJ software to enable the F(n/c) ratio to be determined according to the formula: F(n/c)=(Fn−Fb)/(Fc−Fb), where Fb is the mean background fluorescence intensity.
For the next data set, the system named is EGFP-ERK2. Nature of the data set: EGFP-ERK2 nuclear translocation upon photo-activation of caged MEK1, live cell imaging. It counts as cell-based, human. The following applies: resting cells co-expressing EGFP-ERK2, illuminated. The protocol:
Cell culture and transfection—Human embryonic kidney 293ET cells were grown at 37° C. in 5% CO2 atmosphere in DMEM+GlutaMAX-1 medium (Gibco) supplemented with 10% fetal bovine serum (FBS) and 1× pen-strep solution for 24 hours before transfection. Cells were transiently transfected with Genejuice (Novagen) according to the manufacturer's protocol. Cells were serum-starved (DMEM with 0.1% FBS) and grown with 2 mM of the photocaged lysine 1 for 24 h before analysis. Growth medium was replaced with fresh 1-free DMEM supplemented with 0.1% FBS before photo-activation experiments.

Data set [4] deals with HEK293 cells. Briefly: Amber suppression of mCherry-TAG-egfp-ha reporter by PCKRS/PyltRNACUA. In kind it is cell-based, human. The note with it: PCKRS/PyltRNACUA pair, 1 mM, Western blot, versus hTyrtRNACUA. The protocol: Adherent human embryonic kidney (HEK)-293 cells were cultured at 37° C. in a 5% CO2 atmosphere in DMEM+GlutaMAX-1 medium (Gibco) supplemented with 10% FBS and 1× pen-strep solution. Cells were transiently transfected with Genejuice (Novagen) according to the manufacturer's protocol. Double transfections were performed using equal amount of both plasmids. Before transfection, medium was replaced by fresh antibiotic-free medium supplemented, when necessary, with the unnatural amino acid (see figure legends for concentrations). Cells were analyzed 24 h after transfection. For western blot analysis, cells were washed with cold PBS, then lysed with universal lysis buffer (Roche) at 4° C. for 10 min. Western Blots were performed using antibodies against HA-tag (Sigma), Flag-tag (Cell signaling), Ds-Red (Clontech) or p53 (Abcam).
For imaging cells expressing mCherry-TAG-EGFP-HA, cells were seeded and transfected in 24-well plates. Laser-scanning confocal microscopy was performed using a Bio-Rad Radiance 2100 system mounted on a Nikon Eclipse TE300 inverted microscope equipped with a Plan Fluor ELWD 20×/0.45 objective. Fluorescence emission was measured between 515-530 nm for EGFP (excitation wavelength: 488 nm) and above 560 nm for mCherry (excitation wavelength: 543 nm).

Another data set has as its system sfGFP-his6. Nature of the data set: Expression of sfGFP-his6 with unnatural amino acid at amber codon 145. In kind it is cell-based, E. coli. The following applies: PCKRS/PyltRNACUA pair, 1 (5 mM), amber codon at position 145. On the procedure: FIG. 3—A. anti His-tag immunoblot of cell extracts from E. coli cells expressing PCKRS/PyltRNACUA and myoglobin with an amber codon at position 4 (pMyo4TAGHis6) in the presence or absence of 1 mM photocaged lysine 1. B. Coomassie stained gel of Ni-NTA purified sfGFP-his6 from cells containing either the MbPylRS/PyltRNACUA pair and grown with ε-Boc-lysine (BocK) (1 mM), or the PCKRS/PyltRNACUA pair and grown with 1 (5 mM). The unnatural amino acid was introduced into sfGFP in response to an amber codon at position 145. […] C. […] A second peak corresponding to myoglobin with a free lysine is also detected (peak B; obtained mass 18396 Da, expected mass 18395.7 Da). […] D. MS/MS fragmentation of tryptic peptide derived from sfGFP(145-1) (the peptide sequence is shown above the spectrum; MH^+ peptide mass 2145.972 Da). The spectrum confirms the incorporation of 1 at codon 145. The fragmentation sites are illustrated above the spectrum. […] E. ESI-MS analysis of myoglobin produced by PCKRS/PyltRNACUA (with 2 mM 1) after photolysis for 0 min, 1 min and 5 min with 365 nm light (A: caged protein mass 18633.0±1.8 Da, expected mass 18631.7 Da; B: uncaged protein mass 18395.4±0.7 Da, expected mass 18395.7).
To express myoglobin with an incorporated unnatural amino acid, we transformed E. coli DH10B cells with pBKamp-PCKRS and pMyo4TAGPylT-his6. […]

The nature of data set [5]: Decaging of myoglobin containing 1 by 365 nm photolysis, ESI-MS. It counts as physicochemical. The note with it: myoglobin containing 1, in vitro. The protocol:
FIG. 3—A. anti His-tag immunoblot of cell extracts from E. coli cells expressing PCKRS/PyltRNACUA and myoglobin with an amber codon at position 4 (pMyo4TAGHis6) in the presence or absence of 1 mM photocaged lysine 1. B. Coomassie stained gel of Ni-NTA purified sfGFP-his6 from cells containing either the MbPylRS/PyltRNACUA pair and grown with ε-Boc-lysine (BocK) (1 mM), or the PCKRS/PyltRNACUA pair and grown with 1 (5 mM). The unnatural amino acid was introduced into sfGFP in response to an amber codon at position 145. […] C. […] A second peak corresponding to myoglobin with a free lysine is also detected (peak B; obtained mass 18396 Da, expected mass 18395.7 Da). […] D. MS/MS fragmentation of tryptic peptide derived from sfGFP(145-1) (the peptide sequence is shown above the spectrum; MH^+ peptide mass 2145.972 Da). […]
Protein total mass was determined on an LCT time-of-flight mass spectrometer with electrospray ionization (ESI, Micromass). […] Theoretical masses of wild-type proteins were calculated using Protparam (http://us.expasy.org/tools/protparam.html), and theoretical masses for unnatural amino acid containing proteins were adjusted manually.
For the analysis of the uncaging process, purified myoglobin was photolysed at 365 nm with a high power LED source module at 365 nm (Black-led-365, Prizmatix). Protein total mass was then determined as described above.

Data set [6] concerns EGFP-ERK2 and endogenous ERK1/2. Nature of the data set: Immunoblot of ERK, p90RSK and Elk-1 phosphorylation upon photo-activation of caged MEK1. It counts as cell-based, human. The source says: MEK1 is highly specific for the downstream extracellular signal-regulated protein kinases ERK1 and ERK2, and has no other known substrates (Shaul and Seger, 2007). MEK1 phosphorylates two regulatory residues in ERK1/2, a threonine and a tyrosine, both part of a conserved Thr-Glu-Tyr (TEY) motif (Payne et al., 1991). To verify that the introduction of the photocaged lysine 1 prevents kinase activity, C-MEK1-ΔN was co-expressed with ERK2 fused to an enhanced green fluorescence protein (EGFP-ERK2) in resting HEK293ET cells.
To activate C-MEK1-ΔN we illuminated cells producing the protein for one minute using a 365 nm light-emitting diode (LED) lamp placed underneath the culture plate. This method allows us to illuminate a sufficient number of cells for western blot analysis with monochromatic light that avoids sample heating. […] We observed more phosphorylated EGFP-ERK2 than phosphorylated endogenous ERK1/2. This is consistent with the fact that only a subset of cells contain EGFP-ERK2 and C-MEK1-ΔN, via transfection, while essentially all cells contain endogenous ERK1/2. […] EGFP-ERK2 levels in transfected cells are lower-than or equal to that of the endogenous ERKs. […]
For orientation: Immunoblotting shows a protein as a band on a membrane.

Turning to “EGF: Recombinant human epidermal growth factor, purchased from Gibco”, the “lag phase prior to rapid nuclear accumulation of EGFP-ERK2” value in the data set with MAP kinase pathway (100 ng/ml EGF) was found to be 3 min. For the same molecule, the “t1/2 of EGFP-ERK2 nuclear translocation” value with MAP kinase pathway (EGF-stimulated activation of the whole pathway, 100 ng/ml) worked out at 4.5 min.
In the case of `N#CC(=C(/N)Sc1ccccc1N)/C(C#N)=C(\N)Sc1ccccc1N` [U0126], in the data set with MEK1 [1], the “increase of endogenous phosphorylated p90RSK and Elk-1 after illumination” value is given as “not observed”. Further, in the data set with MEK1 [2] (10 μM added 8 min after C-MEK1-DD photoactivation), the “t1/2 of loss of EGFP nuclear fluorescence” value is listed as under 3 min. Also, the “effect on EGFP-ERK2 nuclear accumulation” value in the data set with MEK1 [2] (10 μM added before illumination, C-MEK1-DD cells) is “significantly blocked nuclear accumulation”.
For the molecule `N[C@@H](Cc1ccc(O)cc1)C(=O)O` [tyrosine], in the data set on HEK293 cells [3], the “p53 localization following photolysis” value was “did not localize to the nucleus”.
For “wt-MEK1: wild-type MEK1 [reference compound]”, the “EGFP-ERK2 nuclear translocation upon illumination” value in the data set with EGFP-ERK2 is given as “no nuclear translocation was observed”.
For the molecule `CC(OC(=O)NCCCC[C@H](N)C(=O)O)c1cc2c(cc1[N+](=O)[O-])OCO2` (stereo partly drawn) [compound 1, (2S)-2-Amino-6-{([1-(6-nitrobenzo[d][1,3]dioxol-5-yl)ethoxy]carbonylamino}hexanoic acid TFA salt], the efficiency of incorporation entry with HEK293 cells [4] is “comparable to the efficiency of incorporation of tyrosine”. Besides, the “yield of sfGFP-his6 obtained by incorporation” value with sfGFP-his6 was determined as 1 mg/L. Besides, the “decaging upon irradiation with 365 nm light” value in [5] is “efficiently decaged”.

B1: D-MEK1-ΔN: dead MEK1 with deletion Δ30-49 and mutation K97M (protein, UniProt Q02750 1-393, looked up, variant del30-49 K97M)
Dual specificity …: MPKKKPTPIQLNPAPDGSAVNGTSSAETNLEAFLTQKQKVGELKDDDFEKISELGAGNGGVVFKVSHKPSGLVMARMLIHLEIKPAIRNQIIRELQVLHECNSPYIVGFYGAFYSDGEISICMEHMDGGSLDQVLKKAGRIPEQILGKVSIAVIKGLTYLREKHKIMHRDVKPSNILVNSRGEIKLCDFGVSGQLIDSMANSFVGTRSYMSPERLQGTHYSVQSDIWSMGLSLVEMAVGRYPIPPPDAKELELMFGCQVEGDAAETPPRPRTPGRPLSSYGMDSRPPMAIFELLDYIVNEPPPKLPSGVFSLEFQDFVNKCLIKNPAERADLKQLMVHAFIKRSDAEEVDFAGWLCSTIGLNQPSTPTHAAGV
modifications: HA tag
notes: dead MEK1 with deletion Δ30-49 and mutation K97M
In the case of B1, the “phosphorylation of EGFP-ERK2 or endogenous ERK1/2 after illumination” value in data set [6] (365 nm LED illumination) is recorded as “no detectable phosphorylation”. Besides, in data set [6] (resting cells co-expressing EGFP-ERK2, 60 s 365 nm), the “endogenous phosphorylated p90RSK and Elk-1 after illumination” value is on record as “not observed”.

B2: D-MEK1-DD: catalytically dead MEK1 mutant with S218D, S222D and K97M (protein, UniProt Q02750 1-393, looked up, variant S218D S222D K97M)
Dual specificity …: MPKKKPTPIQLNPAPDGSAVNGTSSAETNLEALQKKLEELELDEQQRKRLEAFLTQKQKVGELKDDDFEKISELGAGNGGVVFKVSHKPSGLVMARMLIHLEIKPAIRNQIIRELQVLHECNSPYIVGFYGAFYSDGEISICMEHMDGGSLDQVLKKAGRIPEQILGKVSIAVIKGLTYLREKHKIMHRDVKPSNILVNSRGEIKLCDFGVSGQLIDDMANDFVGTRSYMSPERLQGTHYSVQSDIWSMGLSLVEMAVGRYPIPPPDAKELELMFGCQVEGDAAETPPRPRTPGRPLSSYGMDSRPPMAIFELLDYIVNEPPPKLPSGVFSLEFQDFVNKCLIKNPAERADLKQLMVHAFIKRSDAEEVDFAGWLCSTIGLNQPSTPTHAAGV
modifications: HA tag
notes: catalytically dead MEK1 mutant with S218D, S222D and K97M
On to B2, for which, in the data set on EGFP-ERK2, the “EGFP-ERK2 nuclear translocation upon illumination” value was “no nuclear translocation was observed”.
